Assay results published in US20120197004A1, “NOVEL ANTI-MICROBIAL PEPTIDOMIMETIC COMPOUNDS AND METHODS TO CALCULATE ANTI-MICROBIAL ACTIVITY” (priority 2006, published 2012).
≈ marks a conversion by molar mass, not a printed value. Where a SMILES comes first, the peptide text is derived from it. [ ]: non-standard residue; d: D form. ξ: configuration not given here. Oic = O=C(O)[C@@H]1C[C@@H]2CCCC[C@@H]2N1; Tic = O=C(O)[C@@H]1Cc2ccccc2CN1; ξTic = O=C(O)C1Cc2ccccc2CN1; ξOic = O=C(O)C1CC2CCCCC2N1

How the values were obtained:
[1] = tested on: Plasmodium falciparum W2 (CDC Indochina III chloroquine, quinine, pyrimethamine and sulfadoxine-resistant)
[2] = tested on: Plasmodium falciparum D6 (CDC Sierra Leone, mefloquine resistant)
[3] = tested on: Salmonella typhimurium (ATCC 13311); conditions: for p(MIC) Salmonella typhimurium: -log(MIC); for MIC Salmonella typhimurium: ATCC 13311
[4] = tested on: Staphylococcus aureus Methicillin/Gentamicin/Tetracycline Resistant (ATCC 33592); conditions: for p(MIC) Staphylococcus aureus ME/GM/TC resistant: -log(MIC); for MIC Staphylococcus aureus ME/GM/TC resistant: Minimal Inhibitory Concentration, tested at 100-0.1 in 1% DMSO; for Minimum Inhibitory Concentration Staphylococcus aureus ME/GM/TC resistant: in vitro MIC, tested at 100, 30, 10, 3, 1, 0.3 and 0.1 μM in 1% DMSO; for Actual Bioactivity: p(MIC) used in Staphylococcus aureus QSAR model
[5] = tested on: Mycobacterium ranae (ATCC 110)
[6] = tested on: Bacillus subtillis (ATCC 43223); conditions: for p(MIC) Bacillus Subtillis: -log(MIC); for MIC Bacillus Subtillis: ATCC 43223
red blood cells [7] = assay: Hemolytic studies; conditions: concentration not given
red blood cells [8] = conditions: 100 μM

SMILES | IC50 * W2 [1] | IC50 * D6 [2] | p(MIC) Salmonella typhimurium [3] | MIC Salmonella typhimurium [3] | p(MIC) Staphylococcus aureus ME/GM/TC resistant [4] | MIC Staphylococcus aureus ME/GM/TC resistant [4] | Minimum Inhibitory Concentration Staphylococcus aureus ME/GM/TC resistant [4] | Actual Bioactivity [4] | Actual Bioactivity [5] | MIC Mycobacterium ranae [5] | Minimum Inhibitory Concentration Mycobacterium ranae [5] | p(MIC) Bacillus Subtillis [6] | MIC Bacillus Subtillis [6] | % hemolysis / Hemolytic activity (red blood cells [7]) | % hemolysis 100/25 μM (first value) (red blood cells [8]) | Minimum Inhibitory Concentration Salmonella typhimurium ([3]; in vitro MIC, tested at 100, 30, 10, 3, 1, 0.3 and 0.1 μM in 1% DMSO)
CC(C)C[C@H](NC(=O)CNC(=O)[C@H](CCCCN)NC(=O)CN)C(=O)N1Cc2ccccc2C[C@H]1C(=O)N1[C@H](C(=O)NCC(=O)N[C@@H](CCCNC(=N)N)C(=O)N2Cc3ccccc3C[C@H]2C(=O)N2[C@H](C(=O)NCC(=O)N[C@@H](Cc3ccccc3)C(=O)N3Cc4ccccc4C[C@H]3C(=O)N3[C@H](C(=O)NCC(=O)N[C@@H](CCCNC(=N)N)C(=O)N4Cc5ccccc5C[C@H]4C(=O)N4[C@H](C(=O)NCC(=O)N[C@@H](Cc5ccccc5)C(=O)N5Cc6ccccc6C[C@H]5C(=O)N5[C@H](C(=O)NCC(=O)N[C@@H](CCCNC(=N)N)C(=O)N6Cc7ccccc7C[C@H]6C(=O)N6[C@H](C(=O)NCC(=O)N[C@@H](CCCCN)C(=O)N[C@@H](CCCNC(=N)N)C(N)=O)C[C@@H]7CCCC[C@@H]76)C[C@@H]6CCCC[C@@H]65)C[C@@H]5CCCC[C@@H]54)C[C@@H]4CCCC[C@@H]43)C[C@@H]3CCCC[C@@H]32)C[C@@H]2CCCC[C@@H]21 [WRFK-2, NH2-GKGL-Tic-Oic-GR-Tic-Oic-GF-Tic-Oic-GR-Tic-Oic-GF-Tic-Oic-GR-Tic-Oic-GKR-CONH2] (H-GKGL[Tic][Oic]GR[Tic][Oic]GF[Tic][Oic]GR[Tic][Oic]GF[Tic][Oic]GR[Tic][Oic]GKR-NH2) | 6.9 µg/mL (≈ 1.9 µM) | 7.2 µg/mL (≈ 1.99 µM) | 4.00 | 0.1 mM (≈ 0.362 mg/mL) | 5.00 | 0.01 mM (≈ 0.0362 mg/mL) | 10 µM | 5.000 | 0.000 | 1000 mM (≈ 3620 mg/mL) | not active | 6.00 | 0.001 mM (≈ 0.00362 mg/mL) | 100% |  | 
CC(C)C[C@H](NC(=O)CNC(=O)[C@H](CCCCN)NC(=O)CN)C(=O)N1Cc2ccccc2C[C@H]1C(=O)N1[C@H](C(=O)N[C@@H](Cc2ccccc2)C(=O)N[C@@H](CCCCN)C(=O)N2Cc3ccccc3C[C@H]2C(=O)N2[C@H](C(=O)N[C@@H](CCCCN)C(=O)N[C@@H](Cc3ccccc3)C(=O)N3Cc4ccccc4C[C@H]3C(=O)N3[C@H](C(=O)N[C@@H](Cc4ccccc4)C(=O)N[C@@H](CCCCN)C(=O)N4Cc5ccccc5C[C@H]4C(=O)N4[C@H](C(=O)N[C@@H](CCCCN)C(=O)N[C@@H](Cc5ccccc5)C(=O)N5Cc6ccccc6C[C@H]5C(=O)N5[C@H](C(=O)N[C@@H](Cc6ccccc6)C(=O)N[C@@H](CCCCN)C(=O)N6Cc7ccccc7C[C@H]6C(=O)N6[C@H](C(=O)N[C@@H](Cc7ccccc7)C(=O)N[C@@H](CCCCN)C(=O)N[C@@H](CCCNC(=N)N)C(N)=O)C[C@@H]7CCCC[C@@H]76)C[C@@H]6CCCC[C@@H]65)C[C@@H]5CCCC[C@@H]54)C[C@@H]4CCCC[C@@H]43)C[C@@H]3CCCC[C@@H]32)C[C@@H]2CCCC[C@@H]21 [WRFK-5, NH2-GKGL-Tic-Oic-FK-Tic-Oic-KF-Tic-Oic-FK-Tic-Oic-KF-Tic-Oic-FK-Tic-Oic-FKR-CONH2] (H-GKGL[Tic][Oic]FK[Tic][Oic]KF[Tic][Oic]FK[Tic][Oic]KF[Tic][Oic]FK[Tic][Oic]FKR-NH2) | 4.2 µg/mL (≈ 1.04 µM) | 3.9 µg/mL (≈ 0.965 µM) | 4.00 | 0.1 mM (≈ 0.404 mg/mL) | 4.52 | 0.03 mM (≈ 0.121 mg/mL) | 30 µM | 4.520 | 0.000 | 1000 mM (≈ 4040 mg/mL) | not active | 5.52 | 0.003 mM (≈ 0.0121 mg/mL) |  | 100% | 
CC(C)C[C@H](NC(=O)CNC(=O)[C@H](CCCCN)NC(=O)CN)C(=O)N1Cc2ccccc2CC1C(=O)N1C(C(=O)NCC(=O)N[C@@H](CCCCN)C(=O)N2Cc3ccccc3CC2C(=O)N2C(C(=O)NCC(=O)N[C@@H](Cc3ccccc3)C(=O)N3Cc4ccccc4CC3C(=O)N3C(C(=O)NCC(=O)N[C@@H](CCCCN)C(=O)N4Cc5ccccc5CC4C(=O)N4C(C(=O)NCC(=O)N[C@@H](Cc5ccccc5)C(=O)N5Cc6ccccc6CC5C(=O)N5C(C(=O)NCC(=O)N[C@@H](CCCCN)C(=O)N6Cc7ccccc7CC6C(=O)N6C(C(=O)NCC(=O)N[C@@H](CCCCN)C(=O)N[C@@H](CCCNC(=N)N)C(N)=O)CC7CCCCC76)CC6CCCCC65)CC5CCCCC54)CC4CCCCC43)CC3CCCCC32)CC2CCCCC21 (stereo partly drawn) [WRFK-1, NH2-GKGL-Tic-Oic-GK-Tic-Oic-GF-Tic-Oic-GK-Tic-Oic-GF-Tic-Oic-GK-Tic-Oic-GKR-CONH2] (H-GKGL[ξTic][ξOic]GK[ξTic][ξOic]GF[ξTic][ξOic]GK[ξTic][ξOic]GF[ξTic][ξOic]GK[ξTic][ξOic]GKR-NH2) | 5.7 µg/mL (≈ 1.61 µM) | 7.3 µg/mL (≈ 2.06 µM) |  |  |  | 0.01 mM (≈ 0.0354 mg/mL) | 10 µM |  |  |  |  |  |  |  |  | 
CC(C)C[C@H](NC(=O)CNC(=O)[C@@H]1C[C@@H]2CCCC[C@@H]2N1C(=O)[C@@H]1Cc2ccccc2CN1C(=O)[C@H](CC(C)C)NC(=O)CNC(=O)[C@@H]1C[C@@H]2CCCC[C@@H]2N1C(=O)[C@@H]1Cc2ccccc2CN1C(=O)[C@H](CCCCN)NC(=O)CNC(=O)[C@@H]1C[C@@H]2CCCC[C@@H]2N1C(=O)[C@@H]1Cc2ccccc2CN1C(=O)[C@H](CC(C)C)NC(=O)CNC(=O)[C@@H]1C[C@@H]2CCCC[C@@H]2N1C(=O)[C@@H]1Cc2ccccc2CN1C(=O)[C@H](CCCCN)NC(=O)CNC(=O)[C@@H]1C[C@@H]2CCCC[C@@H]2N1C(=O)[C@@H]1Cc2ccccc2CN1C(=O)[C@H](CC(C)C)NC(=O)CNC(=O)[C@@H]1C[C@@H]2CCCC[C@@H]2N1C(=O)[C@@H]1Cc2ccccc2CN1C(=O)[C@H](CC(C)C)NC(=O)CNC(=O)[C@H](CCCCN)NC(=O)CN)C(=O)N[C@@H](CCCNC(=N)N)C(N)=O [WRFK-3, NH2-GKGL-Tic-Oic-GL-Tic-Oic-GK-Tic-Oic-GL-Tic-Oic-GK-Tic-Oic-GL-Tic-Oic-GLR-CONH2] (H-GKGL[Tic][Oic]GL[Tic][Oic]GK[Tic][Oic]GL[Tic][Oic]GK[Tic][Oic]GL[Tic][Oic]GLR-NH2) | 7.2 µg/mL (≈ 2.09 µM) | 5.2 µg/mL (≈ 1.51 µM) |  |  | 4.00 | 0.1 mM (≈ 0.344 mg/mL) | 100 µM | 4.000 |  |  |  |  |  |  | 100% | not active
CC(C)C[C@H](NC(=O)CNC(=O)[C@H](CCCCN)NC(=O)CN)C(=O)N1Cc2ccccc2C[C@H]1C(=O)N1[C@H](C(=O)NCC(=O)N[C@@H](CCCCN)C(=O)N2Cc3ccccc3C[C@H]2C(=O)N2[C@H](C(=O)NCC(=O)N[C@@H](CC(C)C)C(=O)N3Cc4ccccc4C[C@H]3C(=O)N3[C@H](C(=O)NCC(=O)N[C@@H](CCCCN)C(=O)N4Cc5ccccc5C[C@H]4C(=O)N4[C@H](C(=O)NCC(=O)N[C@@H](CC(C)C)C(=O)N5Cc6ccccc6C[C@H]5C(=O)N5[C@H](C(=O)NCC(=O)N[C@@H](CCCCN)C(=O)N6Cc7ccccc7C[C@H]6C(=O)N6[C@H](C(=O)NCC(=O)N[C@@H](CCCCN)C(=O)N[C@@H](CCCNC(=N)N)C(N)=O)C[C@@H]7CCCC[C@@H]76)C[C@@H]6CCCC[C@@H]65)C[C@@H]5CCCC[C@@H]54)C[C@@H]4CCCC[C@@H]43)C[C@@H]3CCCC[C@@H]32)C[C@@H]2CCCC[C@@H]21 [WRFK-4, NH2-GKGL-Tic-Oic-GK-Tic-Oic-GL-Tic-Oic-GK-Tic-Oic-GL-Tic-Oic-GK-Tic-Oic-GKR-CONH2] (H-GKGL[Tic][Oic]GK[Tic][Oic]GL[Tic][Oic]GK[Tic][Oic]GL[Tic][Oic]GK[Tic][Oic]GKR-NH2) | 6.5 µg/mL (≈ 1.87 µM) | 7.8 µg/mL (≈ 2.25 µM) | 4.00 | 0.1 mM (≈ 0.347 mg/mL) | 5.00 |  |  | 5.000 |  |  |  |  |  | 100% |  | 
